Source: patent publication US6653300B2, “Pyrazole compounds useful as protein kinase inhibitors” (Vertex Pharmaceuticals Incorporated, priority 2000, dated 2003)

Key:
Aurora-2 = target: T1, Aurora-2 (Homo sapiens, UniProt O14965); assay: Ki determination for the inhibition of Aurora-2 (coupled enzyme assay); format: biochemical; conditions: 70 nM Aurora-2, 30° C.
T1 sequence (O14965 1-403): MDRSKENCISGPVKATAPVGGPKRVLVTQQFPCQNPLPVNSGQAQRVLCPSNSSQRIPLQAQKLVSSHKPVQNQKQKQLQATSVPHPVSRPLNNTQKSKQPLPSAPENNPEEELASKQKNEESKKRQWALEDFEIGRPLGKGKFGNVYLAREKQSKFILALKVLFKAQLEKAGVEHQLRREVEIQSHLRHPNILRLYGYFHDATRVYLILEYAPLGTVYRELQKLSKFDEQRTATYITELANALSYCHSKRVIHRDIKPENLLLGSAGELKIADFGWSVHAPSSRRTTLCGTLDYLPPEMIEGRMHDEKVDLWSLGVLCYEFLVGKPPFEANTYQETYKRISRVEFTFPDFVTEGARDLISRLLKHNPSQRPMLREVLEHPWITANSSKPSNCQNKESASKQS
Procedure: Compounds were screened in the following manner for their ability to inhibit Aurora-2 using a standard coupled enzyme assay (Fox et al (1998) Protein Sci 7, 2249).
To an assay stock buffer solution containing 0.1M HEPES 7.5, 10 mM MgCl2, 1 mM DTT, 25 mM NaCl, 2.5 mM phosphoenolpyruvate, […], 30 mg/ml pyruvate kinase, 10 mg/ml lactate dehydrogenase, […], and 800 μM peptide (LRRASLG, American Peptide, Sunnyvale, Calif.) was added a DMSO solution of a compound of the present invention to a final concentration of 30 μM. The resulting mixture was incubated at 30° C. for 10 min. The reaction was initiated by the addition of 10 μL of Aurora-2 stock solution to give a final concentration of 70 nM in the assay. The rates of reaction were obtained by monitoring absorbance at 340 nm over a 5 minute read time at 30° C. using a BioRad Ultramark plate reader (Hercules, Calif.). The Ki values were determined from the rate data as a function of inhibitor concentration.

GSK-3β (AA 1-420) = target: T2, GSK-3β (AA 1-420) (Homo sapiens, UniProt P49841); assay: Ki determination for the inhibition of GSK-3 (coupled enzyme system); format: biochemical; conditions: 20 μM ATP, 20 nM GSK-3β, 30° C.
T2 construct: GSK-3β (AA 1-420)
Procedure, shortened: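 GSK-3β (AA 1-420, 20 nM) was run in a pyruvate kinase/LDH-coupled NADH assay in 100 mM HEPES pH 7.5, 10 mM MgCl2, 25 mM NaCl, 1 mM DTT, 1.5% DMSO, with 300 μM phosphopeptide substrate. Compound (0.002–30 μM) was preincubated 10 min at 30° C, then 20 μM ATP was added.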

T2 sequence (P49841 whole entry, the tested form may be a part): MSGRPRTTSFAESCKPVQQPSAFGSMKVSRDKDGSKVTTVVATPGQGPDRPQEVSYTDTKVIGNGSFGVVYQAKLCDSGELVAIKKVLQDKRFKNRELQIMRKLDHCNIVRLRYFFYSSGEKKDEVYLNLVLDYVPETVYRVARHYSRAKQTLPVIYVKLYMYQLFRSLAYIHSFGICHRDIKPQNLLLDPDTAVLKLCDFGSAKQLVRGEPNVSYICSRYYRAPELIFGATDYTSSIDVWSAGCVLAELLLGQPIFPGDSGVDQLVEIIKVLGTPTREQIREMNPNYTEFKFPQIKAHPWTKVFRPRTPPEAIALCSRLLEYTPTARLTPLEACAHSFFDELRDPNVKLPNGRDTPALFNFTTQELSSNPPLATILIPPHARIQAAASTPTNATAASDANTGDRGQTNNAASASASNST

Row | SMILES | Ki (Aurora-2) | melting point | Ki (GSK-3β (AA 1-420))
1 | c1ccc(Cc2nc(Nc3cc(C4CC4)[nH]n3)c3ccccc3n2)cc1 [IId-3, (2-Benzyl-quinazolin-4-yl)-(5-cyclopropyl-2H-pyrazol-3-yl)-amine] | < 0.1 µM | 219 to 221 °C | 1 to 7 µM
2 | Cc1cc(Nc2nc(Sc3ccc(F)cc3F)nc3ccccc23)n[nH]1 [IIa-12, [2-(2,4-Difluorophenylsulfanyl)-quinazolin-4-yl]-(5-methyl-2H-pyrazol-3-yl)-amine] | < 0.1 µM | 256 to 258 °C | < 0.1 µM
3 | Cc1cc(Nc2nc(Sc3nccn3C)nc3ccccc23)n[nH]1 [IIa-10, [2-(1-Methylimidazol-2-ylsulfanyl)-quinazolin-4-yl]-(5-methyl-2H-pyrazol-3-yl)-amine] | 1 to 10 µM | 255 to 256 °C | 1 to 7 µM
4 | Cc1cc(Nc2nc(Sc3ccc(NC(=O)CCCN4CCOCC4)cc3)nc3ccccc23)n[nH]1 [IIa-64, (5-Methyl-2H-pyrazol-3-yl)-{2-[4-(4-morpholin-4-yl-butyrylamino)-phenylsulfanyl]-quinazolin-4-yl}-amine] | < 0.1 µM | 240 to 243 °C | 1 to 7 µM
5 | O=C(O)COc1ccc(Nc2nc(Nc3cc(C4CC4)[nH]n3)c3ccccc3n2)cc1 [IIc-30, [2-(4-Carboxymethoxyphenylamino)-quinazolin-4-yl]-(5-cyclopropyl-2H-pyrazol-3-yl)-amine] | < 0.1 µM | > 250 °C | < 0.1 µM
6 | Cc1cc(Nc2nc(Nc3ccccc3CCO)nc3ccccc23)n[nH]1 [IIc-14, {2-[2-(2-Hydroxyethyl)phenylamino]-quinazolin-4-yl}-(5-methyl-2H-pyrazol-3-yl)-amine] | 0.1 to 1 µM | 222 °C | 0.1 to 1 µM

Continued, values first:

Row | Ki (Aurora-2) | melting point | Ki (GSK-3β (AA 1-420)) | SMILES
7 | < 0.1 µM | 249 to 251 °C | 0.1 to 1 µM | Cc1cc(Nc2nc(Nc3ccc(C)c(C)c3)nc3ccccc23)n[nH]1 [IIc-54, [2-(3,4-Dimethylphenylamino)-quinazolin-4-yl]-(5-methyl-2H-pyrazol-3-yl)-amine]
8 | < 0.1 µM | > 210 °C (dec.) | < 0.1 µM | O=C(O)Cc1ccc(Nc2nc(Nc3cc(C4CC4)[nH]n3)c3ccccc3n2)cc1 [IIc-36, [2-(4-Carboxymethylphenylamino)-quinazolin-4-yl]-(5-cyclopropyl-2H-pyrazol-3-yl)-amine]
9 | < 0.1 µM | > 250 °C | 0.1 to 1 µM | Cc1cc(Nc2nc(Nc3cccc(CO)c3)nc3ccccc23)n[nH]1 [IIc-16, [2-(3-Hydroxymethylphenylamino)-quinazolin-4-yl]-(5-methyl-2H-pyrazol-3-yl)-amine]
10 | < 0.1 µM | 238 to 239 °C | 0.1 to 1 µM | CCc1cccc(Nc2nc(Nc3cc(C)[nH]n3)c3ccccc3n2)c1 [IIc-55, [2-(3-Ethylphenylamino)-quinazolin-4-yl]-(5-methyl-2H-pyrazol-3-yl)-amine]
11 | < 0.1 µM | 206 to 207 °C | 0.1 to 1 µM | Cc1cc(Nc2nc(Nc3cccc(-c4ccccc4)c3)nc3ccccc23)n[nH]1 [IIc-63, [2-(Biphenyl-3-ylamino)-quinazolin-4-yl]-(5-methyl-2H-pyrazol-3-yl)-amine]
12 | < 0.1 µM | 253 to 256 °C | 0.1 to 1 µM | CC(=O)Nc1ccc(Nc2nc(Nc3cc(C)[nH]n3)c3ccccc3n2)cc1 [IIc-59, [2-(4-Acetamidophenylamino)-quinazolin-4-yl]-(5-methyl-2H-pyrazol-3-yl)-amine]
13 | < 0.1 µM | > 250 °C | 0.1 to 1 µM | Cc1cc(Nc2nc(Nc3cccc(O)c3)nc3ccccc23)n[nH]1 [IIc-17, [2-(3-Hydroxyphenylamino)-quinazolin-4-yl]-(5-methyl-2H-pyrazol-3-yl)-amine]
14 | < 0.1 µM | 251 °C | 0.1 to 1 µM | CC(=O)Nc1ccc(Nc2nc(Nc3cc(C)[nH]n3)c3ccccc3n2)cc1C [IIc-48, [2-(4-acetamido-3-methylphenylamino)-quinazolin-4-yl]-(5-methyl-2H-pyrazol-3-yl)-amine]
